Measured values: the NIST ThermoML archive (doi:10.1016/j.jct.2015.12.025)
Where “and” joins values, the source holds several entries; their conditions need not be identical. Identical values can stand only once. Numbers after ± are expanded uncertainties.

Legend:
[1] = refractive index (Na D-line) (dimensionless); details: 102 kPa, Liquid, Standard Abbe refractometry
[2] = 102 kPa, Liquid, Vibrating tube method
[3] = xn = mol fraction of the nth substance listed; details: 102 kPa, Liquid, Vibrating tube method
[4] = refractive index (Na D-line) (dimensionless); xn = mol fraction of the nth substance listed; details: 102 kPa, Liquid, Standard Abbe refractometry

C[Si]1(CCC(F)(F)F)O[Si](C)(CCC(F)(F)F)O[Si](C)(CCC(F)(F)F)O1 (stereo not drawn)
Details	mass density, 308.15 K [kg/m3]	mass density, 313.15 K [kg/m3]	mass density, 318.15 K [kg/m3]	mass density, 323.15 K [kg/m3]	refractive index, 308.15 K	refractive index, 313.15 K	refractive index, 318.15 K	refractive index, 323.15 K
[1]	–	–	–	–	1.36011 ± 0.00035	1.35808 ± 0.00035	1.35609 ± 0.00035 and 1.35608 ± 0.00035	1.35407 ± 0.00035
[2]	1236.63 ± 1	1230.05 ± 1	1223.55 ± 1	1216.99 ± 1	–	–	–	–

C[Si]1(CCC(F)(F)F)O[Si](C)(CCC(F)(F)F)O[Si](C)(CCC(F)(F)F)O1 (stereo not drawn) + CC(C)(C)c1ccccc1
x1 = 1
Details	mass density, 308.15 K [kg/m3]	mass density, 313.15 K [kg/m3]	mass density, 318.15 K [kg/m3]	mass density, 323.15 K [kg/m3]	refractive index, 308.15 K	refractive index, 313.15 K	refractive index, 318.15 K	refractive index, 323.15 K
[3]	1236.63 ± 1	1230.05 ± 1	1223.55 ± 1	1216.99 ± 1	–	–	–	–
[4]	–	–	–	–	1.36011 ± 0.00035	1.35808 ± 0.00035	1.35609 ± 0.00035	1.35407 ± 0.00035

CC(C)(C)c1ccccc1 [(1,1-dimethylethyl)benzene]
Details	mass density, 298.15 K [kg/m3]	mass density, 308.15 K [kg/m3]	mass density, 313.15 K [kg/m3]	mass density, 318.15 K [kg/m3]	mass density, 323.15 K [kg/m3]	refractive index, 298.15 K	refractive index, 308.15 K	refractive index, 313.15 K	refractive index, 318.15 K	refractive index, 323.15 K
[1]	–	–	–	–	–	1.49009 ± 0.00035	1.48509 ± 0.00035	1.48256 ± 0.00035	1.48007 ± 0.00035	1.47754 ± 0.00035
[2]	862.28 ± 1	854.12 ± 1	849.98 ± 1	845.87 ± 1	841.72 ± 1	–	–	–	–	–

COc1ccccc1 [anisole]
Details	mass density, 298.15 K [kg/m3]	mass density, 308.15 K [kg/m3]	mass density, 313.15 K [kg/m3]	mass density, 318.15 K [kg/m3]	mass density, 323.15 K [kg/m3]	refractive index, 298.15 K	refractive index, 308.15 K	refractive index, 313.15 K	refractive index, 318.15 K	refractive index, 323.15 K
[1]	–	–	–	–	–	1.5146 ± 0.00035	1.50865 ± 0.00035	1.50604 ± 0.00035	1.50341 ± 0.00035	1.50073 ± 0.00035
[2]	989.32 ± 1	980.04 ± 1	975.25 ± 1	970.52 ± 1	965.73 ± 1	–	–	–	–	–

COc1ccccc1 [anisole] + C[Si]1(CCC(F)(F)F)O[Si](C)(CCC(F)(F)F)O[Si](C)(CCC(F)(F)F)O1
x2 = 0
Details	mass density, 308.15 K [kg/m3]	mass density, 313.15 K [kg/m3]	mass density, 318.15 K [kg/m3]	mass density, 323.15 K [kg/m3]	refractive index, 308.15 K	refractive index, 313.15 K	refractive index, 318.15 K	refractive index, 323.15 K
[3]	980.04 ± 1	975.25 ± 1	970.52 ± 1	965.73 ± 1	–	–	–	–
[4]	–	–	–	–	1.50865 ± 0.00035	1.50604 ± 0.00035	1.50341 ± 0.00035	1.50073 ± 0.00035

CCc1ccccc1 [ethylbenzene]
Details	mass density, [2] [kg/m3]	refractive index, [1]
298.15 K	862.58 ± 1	1.49301 ± 0.00035
303.15 K	–	1.4903 ± 0.00035
308.15 K	853.71 ± 1	1.4876 ± 0.00035
313.15 K	849.29 ± 1	1.48491 ± 0.00035
318.15 K	844.7 ± 1	1.48217 ± 0.00035
323.15 K	840.28 ± 1	1.47944 ± 0.00035

CCc1ccccc1 [ethylbenzene] + C[Si]1(CCC(F)(F)F)O[Si](C)(CCC(F)(F)F)O[Si](C)(CCC(F)(F)F)O1
x2 = 0
Details	mass density, 308.15 K [kg/m3]	mass density, 313.15 K [kg/m3]	mass density, 318.15 K [kg/m3]	mass density, 323.15 K [kg/m3]	refractive index, 308.15 K	refractive index, 313.15 K	refractive index, 318.15 K	refractive index, 323.15 K
[3]	853.71 ± 1	849.29 ± 1	844.7 ± 1	840.28 ± 1	–	–	–	–
[4]	–	–	–	–	1.4876 ± 0.00035	1.48491 ± 0.00035	1.48217 ± 0.00035	1.47944 ± 0.00035

O=[N+]([O-])c1ccccc1 [nitrobenzene]
Details	mass density, [2] [kg/m3]	refractive index, [1]
298.15 K	1198.2 ± 1	1.54992 ± 0.00035
303.15 K	1193.25 ± 1	1.54746 ± 0.00035
308.15 K	1188.17 ± 1	1.545 ± 0.00035
313.15 K	1183.21 ± 1	1.5425 ± 0.00035
318.15 K	1178.24 ± 1	1.54005 ± 0.00035
323.15 K	1173.26 ± 1	1.53757 ± 0.00035

O=[N+]([O-])c1ccccc1 [nitrobenzene] + C[Si]1(CCC(F)(F)F)O[Si](C)(CCC(F)(F)F)O[Si](C)(CCC(F)(F)F)O1
x2 = 0
Details	mass density, 308.15 K [kg/m3]	mass density, 313.15 K [kg/m3]	mass density, 318.15 K [kg/m3]	mass density, 323.15 K [kg/m3]	refractive index, 308.15 K	refractive index, 313.15 K	refractive index, 318.15 K	refractive index, 323.15 K
[3]	1188.17 ± 1	1183.21 ± 1	1178.24 ± 1	1173.26 ± 1	–	–	–	–
[4]	–	–	–	–	1.545 ± 0.00035	1.5425 ± 0.00035	1.54005 ± 0.00035	1.53757 ± 0.00035
